The record followed here is patent publication US20080318227A1, “Intermediates and enzymes of the non-mevalonate isoprenoid pathway” (priority 2001, published 2008).

One assay has as its system γδ T-cells. As to the kind of experiment: γδ T cell stimulation assay (PBMCs, FACS Vδ2 TCR/CD3 double staining). As to conditions: for γδ T cell stimulation compared to IPP: at a concentration 200-fold lower than the concentration of the IPP sample; for % γδ T-cells: seven days. Type of assay: cell-based, human. The protocol:
PBMCs from healthy donors (donor A and donor B) are isolated from heparinized peripheral blood by density centrifugation over Ficoll-Hypaque (Amersham Pharmacia Biotech, Freiburg, Germany). […] Amounts of recombinant human IL-2 (kindly provided by Eurocetus, Amsterdam, The Netherlands) and substrates are varied from 1 to 10 U and 10 to 0.1 μM, respectively. 20 μM IPP (Echelon, Research Laboratories Inc., Salt Lake City, USA) serves as a positive control whereas medium alone serves as negative control. Incubation is done for seven days at 37° C. in the presence of 7% CO2. The harvested cells are double-stained with fluorescein isothiocyanate (FITC)-conjugated mouse anti-human monoclonal antibody Vδ2 TCR and phycoerythrin (PE)-conjugated monoclonal CD3 antibody. The cells are analyzed using a FACScan supported with Cellquest (Becton Dickinson, Heidelberg, Germany).
The substrates (E)-1-hydroxy-3-methyl-but-2-enyl 4-diphosphate (HMBPP) and 3-formyl-but-2-enyl 1-diphosphate (Aldehyde) were prepared synthetically as described above.

Another assay deals with T1, IspH (LytB) (Escherichia coli, UniProt P62623).
T1 construct: 20 μl of crude cell extract of M15-pMALlytB cells; made in house; host or cells: E. coli M15 harbouring pMALlytB (crude cell extract)
As to the kind of experiment: Screening of IspH (LytB) activity, crude cell extract, radio-HPLC. Type of assay: biochemical.

Assay [1] concerns Capsicum annuum chromoplasts. Nature of the assay: Incorporation into the lipid soluble fraction of chromoplasts. Type of assay: biochemical. As to conditions: [2-14C] label, 8.8 nmol, 30° C. overnight. The protocol: Chromoplasts are isolated by a slight modification of a method described by Camara (Camara, 1985; Camara, 1993). Pericarp of red pepper (650 g) is homogenized at 4° C. in 600 ml of 50 mM Hepes, pH 8.0, containing 1 mM DTE, 1 mM EDTA and 0.4 M sucrose (buffer A). The suspension is filtered through four layers of nylon cloth (50 μm) and centrifuged (10 min, 4,500 rpm, GSA rotor) to obtain a pellet of crude chromoplasts which is homogenized in 200 ml of buffer A. The suspension is centrifuged (10 min, 4,500 rpm, GSA rotor). The pellet is homogenized and resuspended in 3 ml of 50 mM Hepes, pH 7.6, containing 1 mM DTE. The suspension is filtered through one layer of nylon cloth (50 μm).
Reaction mixtures contain 100 mM Hepes, pH 7.6, 2 mM MnCl2, 10 mM MgCl2, 5 mM NaF, 2 mM NADP^+, 1 mM NADPH, 6 mM ATP, 20 μM FAD and 2 mg of chromoplasts. 8.8 nmol of [2-^14C]2C-methyl-D-erythritol 2,4-cyclodiphosphate, [2-^14C]1-hydroxy-2-methyl-2-(E)-butenyl diphosphate or [2-^14C]isopentenyl diphosphate (specific […] 15.8 μCi/μmol) are added and the mixtures are incubated at 30° C. overnight. The reaction is terminated by methylene chloride extraction. The organic phase is concentrated under a stream of nitrogen. […] The chromatograms are monitored with a phosphor imager (Storm 860, Molecular dynamics, Sunnyvale, Calif., USA). […]

In the next assay the target is T2, IspG (GcpE) (Escherichia coli, UniProt P62620).
T2 construct: 100 μl crude cell extract of XL1-pACYClytBgcpE; made in house; host or cells: E. coli XL1-Blue harbouring pACYClytBgcpE (crude cell extract)
Nature of the assay: Screening of IspG (GcpE) enzyme activity, crude cell extract of XL1-pACYClytBgcpE, radio-HPLC. The assay is classed as biochemical. The settings on record: after 10 minutes of incubation at 37° C., NADH, CoCl2, pamidronate. The protocol: 0.2 g cells of XL1-pACYClytBgcpE are suspended in 1 ml 50 mM Tris hydrochloride, pH 7.4 and 2 mM DTT, cooled on ice and sonified 3×7 sec with a Branson Sonifier 250 (Branson SONIC Power Company) set to 80% duty cycle output, control value of 4 output. The suspension is centrifuged at 14000 rpm for 15 minutes. The supernatant is used as crude cell extract in assays described as follows.
The assay mixture contains 100 mM Tris hydrochloride, pH 7.4, 1.2 mM dithiothreitol, 10 mM NaF, 1 mM CoCl2, 2 mM NADH, 20 mM (18 μCi mol^−1) [2-^14C[…]2C-methyl-erythritol 2,4-cyclodiphophate, 0.5 mM pamidronate and 100 μl crude cell extract of XL1-pACYClytBgcpE in a total volume of 150 μl. The mixture is incubated for 10 to 45 min at 37° C. and cooled on ice. 10 μl of 30% (g/v) trichloroacetic acid are added and the mixture is neutralized with 20 μl of 1 M NaOH.
The mixture is centrifuged at 14.000 rpm for 10 minutes. Aliquotes of 130 μl of the supernatant are analyzed by reversed-phase ion-pair HPLC using a column of Multospher 120 RP 18-AQ-5 (4.6×250 mm, CS-Chromatographie Service GmbH, Langerwehe, Germany). […] The effluent is monitored by a continuous-flow radio detector (Beta-RAM, Biostep GmbH, Jahnsdorf, Germany). […]

Where [2] appears, read: substrate 0.1 μM, IL-2 1 U, Donor A.
Setting [3] is: substrate 0.1 μM, IL-2 1 U, Donor B.
Setting [4] is: substrate 0.1 μM, IL-2 5 U, Donor A.
Setting [5] is: substrate 0.1 μM, IL-2 5 U, Donor B.
Where [6] appears, read: substrate 0.1 μM, IL-2 10 U, Donor A.
The mark [7] stands for this setting: substrate 0.1 μM, IL-2 10 U, Donor B.
[8] abbreviates: substrate 1 μM, IL-2 1 U, Donor A.
The mark [9] stands for this setting: substrate 1 μM, IL-2 1 U, Donor B.
Setting [10] is: substrate 1 μM, IL-2 5 U, Donor A.
Setting [11] is: substrate 1 μM, IL-2 5 U, Donor B.
[12] abbreviates: substrate 1 μM, IL-2 10 U, Donor A.
[13] abbreviates: substrate 1 μM, IL-2 10 U, Donor B.
Where [14] appears, read: substrate 10 μM, IL-2 1 U, Donor A.
The mark [15] stands for this setting: substrate 10 μM, IL-2 1 U, Donor B.
Where [16] appears, read: substrate 10 μM, IL-2 5 U, Donor A.
The mark [17] stands for this setting: substrate 10 μM, IL-2 5 U, Donor B.
Where [18] appears, read: substrate 10 μM, IL-2 10 U, Donor A.
The mark [19] stands for this setting: substrate 10 μM, IL-2 10 U, Donor B.

T1 sequence (P62623 whole entry): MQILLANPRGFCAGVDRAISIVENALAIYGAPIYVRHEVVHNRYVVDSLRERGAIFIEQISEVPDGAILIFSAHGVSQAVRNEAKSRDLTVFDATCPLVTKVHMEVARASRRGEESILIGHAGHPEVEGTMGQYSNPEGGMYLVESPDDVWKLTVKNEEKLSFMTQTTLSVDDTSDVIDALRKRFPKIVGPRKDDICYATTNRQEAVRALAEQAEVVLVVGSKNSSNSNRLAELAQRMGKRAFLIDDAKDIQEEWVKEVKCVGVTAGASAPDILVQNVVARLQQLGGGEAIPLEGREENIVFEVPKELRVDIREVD
T2 sequence (P62620 whole entry): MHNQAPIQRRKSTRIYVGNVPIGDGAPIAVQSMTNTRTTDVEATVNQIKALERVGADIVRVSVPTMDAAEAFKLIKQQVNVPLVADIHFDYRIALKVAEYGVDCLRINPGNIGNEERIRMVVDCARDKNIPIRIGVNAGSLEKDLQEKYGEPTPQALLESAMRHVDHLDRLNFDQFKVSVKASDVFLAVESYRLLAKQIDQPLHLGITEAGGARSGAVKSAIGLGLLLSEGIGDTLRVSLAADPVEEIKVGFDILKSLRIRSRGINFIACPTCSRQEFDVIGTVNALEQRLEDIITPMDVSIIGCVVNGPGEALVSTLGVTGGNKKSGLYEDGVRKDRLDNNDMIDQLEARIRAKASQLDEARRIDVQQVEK

With `C/C(=C\COP(=O)(O)OP(=O)(O)O)CO` [HMBPP, (E)-1-hydroxy-3-methyl-but-2-enyl 4-diphosphate], in the assay with γδ T-cells, the “γδ T cell stimulation compared to IPP” value is given as “at least double stimulation compared to IPP”. The “% γδ T-cells” value was 11.78% in the assay on γδ T-cells (setting [2]); 32.21% with γδ T-cells (setting [3]); 22.92% with γδ T-cells (setting [4]); 44.69% with γδ T-cells (setting [5]); 34.69% in the assay on γδ T-cells (setting [6]); 36.33% in the assay on γδ T-cells (setting [7]). In addition, the “% γδ T-cells” value turned out to be 5.57% in the assay with γδ T-cells (setting [8]); 35.34% with γδ T-cells (setting [9]); 14.4% in the assay with γδ T-cells (setting [10]); 54.12% in the assay with γδ T-cells (setting [11]); 19.85% with γδ T-cells (setting [12]); 55.90% with γδ T-cells (setting [13]). The “% γδ T-cells” value in the assay with γδ T-cells (setting [14]) is 3.3%; in the assay on γδ T-cells (setting [15]) it was 31.42%; in the assay on γδ T-cells (setting [16]), 17.38%; in the assay with γδ T-cells (setting [17]), 63.48%; in the assay on γδ T-cells (setting [18]), 24.94%; in the assay on γδ T-cells (setting [19]), 63.34%. In addition, the “HPLC peak of substrate; conversion into DMAPP and IPP” value at IspH (LytB) (crude cell extract of E. coli M15-pMALlytB cells, 30 min at 37° C., NADH, FAD, pamidronate) is listed as “completely diminished”. Further, the “conversion into DMAPP and IPP” value on IspH (LytB) (crude cell extract of E. coli wild-type as protein source) is on record as “No conversion”. Also, in assay [1], the “radioactivity diverted into geranylgeraniol, carotene, phytoene and phytofluene fractions” value is “efficiently diverted”.
With `C[C@@]1(CO)OP(=O)(O)OP(=O)(O)OC[C@H]1O` [2C-methyl-erythritol 2,4-cyclodiphophate, 2C-methyl-D-erythritol 2,4-cyclodiphosphate], the “substrate converted into 1-hydroxy-2-methyl-2-(E)-butenyl-4-diphosphate and DMAPP/IPP” value on IspG (GcpE) is reported as “about 13%”.
Consider “(E)-3-formyl-but-2-enyl 1-diphosphate [Aldehyde]”, for which the “γδ T cell stimulation compared to IPP” value in the assay on γδ T-cells is on record as “at least double stimulation compared to IPP”. The “% γδ T-cells” value in the assay with γδ T-cells (setting [2]) came out at 10%; in the assay with γδ T-cells (setting [3]), 13.54%; in the assay on γδ T-cells (setting [4]) it was 19.77%; in the assay on γδ T-cells (setting [5]), 18.45%; in the assay on γδ T-cells (setting [6]), 21.93%; in the assay with γδ T-cells (setting [7]), 25.82%. The “% γδ T-cells” value was found to be 15.91% in the assay with γδ T-cells (setting [8]); 21.18% with γδ T-cells (setting [9]); 40.13% in the assay with γδ T-cells (setting [10]); 30.76% in the assay with γδ T-cells (setting [11]); 48.28% with γδ T-cells (setting [12]); 36.69% with γδ T-cells (setting [13]). Further, the “% γδ T-cells” value in the assay on γδ T-cells (setting [14]) is listed as 12.19%; with γδ T-cells (setting [15]) it was 30.69%; in the assay on γδ T-cells (setting [16]), 34.69%; with γδ T-cells (setting [17]), 30.33%; with γδ T-cells (setting [18]), 38.99%; in the assay on γδ T-cells (setting [19]) it was 38.85%.
Regarding `C=C(C)CCO[P@@](=O)(O)OP(=O)(O)O` [IPP, isopentenyl diphosphate, reference compound], the “% γδ T-cells” value in the assay on γδ T-cells (setting [2]) was determined as 1.3%; with γδ T-cells (setting [3]) it was 2.15%; in the assay with γδ T-cells (setting [4]) it was 1.3%; in the assay on γδ T-cells (setting [5]), 2.26%; with γδ T-cells (setting [6]), 1.01%; with γδ T-cells (setting [7]), 2.54%. Besides, the “% γδ T-cells” value in the assay on γδ T-cells (setting [8]) was 1.56%; with γδ T-cells (setting [9]), 2.22%; in the assay with γδ T-cells (setting [10]), 1.59%; with γδ T-cells (setting [11]) it was 2.67%; in the assay with γδ T-cells (setting [12]), 1.71%; with γδ T-cells (setting [13]), 2.19%. The “% γδ T-cells” value is recorded as 8.19% with γδ T-cells (substrate 20 μM, IL-2 1 U, Donor A); 6.24% in the assay on γδ T-cells (substrate 20 μM, IL-2 1 U, Donor B); 14.42% in the assay on γδ T-cells (substrate 20 μM, IL-2 5 U, Donor A); 9.32% in the assay on γδ T-cells (substrate 20 μM, IL-2 5 U, Donor B); 16.6% in the assay with γδ T-cells (substrate 20 μM, IL-2 10 U, Donor A); 11.86% in the assay with γδ T-cells (substrate 20 μM, IL-2 10 U, Donor B).
